Results taken from ChEMBL document CHEMBL3232949, “Rapid identification of Keap1-Nrf2 small-molecule inhibitors through structure-based virtual screening and hit-based substructure search” (J Med Chem, 2014).
Activity calls are given as the source filed them. The rule behind the calls is not given here.

Columns and labels:
Keap1/Nrf2 = Keap1/Nrf2 (Homo sapiens, UniProt Q14145); assay: Inhibition of Keap1-Nrf2 (unknown origin) interaction assessed as compound's equilibrium dissociation constant after 60 mins by fluorescence anisotropy assay; type: protein assay
[1] = biological target: T1, Nuclear factor erythroid 2-related factor 2 (Rattus norvegicus) (UniProt O54968); assay: Activation of Nrf2 in rat PC12 cells assessed as increase of HO-1 mRNA level at 1 to 4 uM by qRT-PCR analysis; type: cell-based; settings: PC-12, TDE = time-dependent effect
T1 sequence (whole entry): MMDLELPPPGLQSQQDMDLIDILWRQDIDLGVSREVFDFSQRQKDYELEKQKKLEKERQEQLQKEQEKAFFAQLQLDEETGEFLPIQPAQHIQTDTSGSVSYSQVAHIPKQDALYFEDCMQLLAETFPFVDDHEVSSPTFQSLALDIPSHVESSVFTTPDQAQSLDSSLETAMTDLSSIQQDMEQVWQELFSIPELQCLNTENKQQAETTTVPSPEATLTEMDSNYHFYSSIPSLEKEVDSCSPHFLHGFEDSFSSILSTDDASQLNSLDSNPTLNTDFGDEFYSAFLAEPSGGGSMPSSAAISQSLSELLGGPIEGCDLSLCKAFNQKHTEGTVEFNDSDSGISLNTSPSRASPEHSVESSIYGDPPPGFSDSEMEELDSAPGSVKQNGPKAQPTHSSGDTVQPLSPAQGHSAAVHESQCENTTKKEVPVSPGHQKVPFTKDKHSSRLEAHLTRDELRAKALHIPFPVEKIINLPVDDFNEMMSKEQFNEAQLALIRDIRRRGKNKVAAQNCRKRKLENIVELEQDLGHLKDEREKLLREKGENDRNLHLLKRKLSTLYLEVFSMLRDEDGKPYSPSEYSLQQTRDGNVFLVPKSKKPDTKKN

[2] = biological target: T1, Nuclear factor erythroid 2-related factor 2 (Rattus norvegicus); assay: Induction of nuclear translocation of Nrf2 in rat PC12 cells at 4 uM after 4.5 hrs by Western blot analysis; type: cell-based; settings: PC-12
[3] = biological target: T1, Nuclear factor erythroid 2-related factor 2 (Rattus norvegicus); assay: Induction of nuclear translocation of Nrf2 in rat PC12 cells at 4 uM after 1.5 hrs by Western blot analysis; type: cell-based; settings: PC-12
[4] = biological target: T1, Nuclear factor erythroid 2-related factor 2 (Rattus norvegicus); assay: Activation of Nrf2 in rat PC12 cells assessed as increase of HO-1 mRNA level after 4.5 to 9 hrs by qRT-PCR analysis; type: cell-based; settings: PC-12
[5] = biological target: Kelch-like ECH-associated protein 1 (Homo sapiens) (UniProt Q14145)
Description: Binding affinity to kelch domain of Keap1 (unknown origin) assessed as change in melting temperature after 15 mins by differential scanning fluorimetry assay

[6] = biological target: T1, Nuclear factor erythroid 2-related factor 2 (Rattus norvegicus); assay: Activation of Nrf2 in rat PC12 cells assessed as increase of HO-1 mRNA level at 1 to 4 uM after 4.5 to 9 hrs by qRT-PCR analysis; type: cell-based; settings: PC-12
[7] = biological target: T1, Nuclear factor erythroid 2-related factor 2 (Rattus norvegicus); assay: Activation of Nrf2 in rat PC12 cells assessed as increase of NQO-1 mRNA level at 1 to 4 uM after 4.5 to 9 hrs by qRT-PCR analysis; type: cell-based; settings: PC-12

Kelch-like ECH-associated protein 1 (Homo sapiens), sequence (Q14145 whole entry): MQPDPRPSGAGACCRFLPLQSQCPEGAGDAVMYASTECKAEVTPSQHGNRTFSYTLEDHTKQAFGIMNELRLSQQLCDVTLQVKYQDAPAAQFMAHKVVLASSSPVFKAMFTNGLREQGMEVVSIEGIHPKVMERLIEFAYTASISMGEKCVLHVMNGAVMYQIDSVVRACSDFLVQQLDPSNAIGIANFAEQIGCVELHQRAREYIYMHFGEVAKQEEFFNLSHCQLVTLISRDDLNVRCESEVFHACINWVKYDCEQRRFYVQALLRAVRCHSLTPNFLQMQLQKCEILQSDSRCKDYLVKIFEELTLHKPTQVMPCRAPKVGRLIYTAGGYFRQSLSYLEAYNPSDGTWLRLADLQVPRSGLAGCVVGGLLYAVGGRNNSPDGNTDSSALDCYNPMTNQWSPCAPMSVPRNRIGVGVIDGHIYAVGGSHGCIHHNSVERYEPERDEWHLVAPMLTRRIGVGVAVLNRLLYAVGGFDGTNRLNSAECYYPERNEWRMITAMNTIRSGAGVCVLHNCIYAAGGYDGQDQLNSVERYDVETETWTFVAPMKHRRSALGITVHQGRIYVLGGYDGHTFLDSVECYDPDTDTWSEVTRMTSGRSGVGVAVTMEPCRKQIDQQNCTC
Keap1/Nrf2, sequence (Q16236 whole entry): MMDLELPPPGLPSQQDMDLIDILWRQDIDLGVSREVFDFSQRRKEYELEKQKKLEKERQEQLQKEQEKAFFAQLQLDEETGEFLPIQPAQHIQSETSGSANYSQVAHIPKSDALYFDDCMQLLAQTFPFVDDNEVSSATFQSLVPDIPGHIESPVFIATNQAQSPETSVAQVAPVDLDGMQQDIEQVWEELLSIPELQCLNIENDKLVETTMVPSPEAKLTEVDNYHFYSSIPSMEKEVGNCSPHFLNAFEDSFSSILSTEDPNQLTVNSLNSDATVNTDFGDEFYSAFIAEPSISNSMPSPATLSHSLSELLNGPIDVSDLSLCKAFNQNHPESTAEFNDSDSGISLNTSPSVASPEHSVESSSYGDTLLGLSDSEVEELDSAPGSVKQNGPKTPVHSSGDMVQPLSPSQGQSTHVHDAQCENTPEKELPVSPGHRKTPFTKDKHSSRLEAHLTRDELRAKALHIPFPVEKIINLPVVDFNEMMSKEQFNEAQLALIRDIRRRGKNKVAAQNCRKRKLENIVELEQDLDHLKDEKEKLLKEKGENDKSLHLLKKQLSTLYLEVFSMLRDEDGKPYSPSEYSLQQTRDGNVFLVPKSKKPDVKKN
Keap1/Nrf2, sequence (Q14145 whole entry): as the sequence (Q14145 whole entry) above

Row | Kd (Keap1/Nrf2) [µM] | SMILES | also measured
1 | > 100 | Cc1cccc(N2NC(=O)/C(=C/c3ccc(-c4ccc(S(N)(=O)=O)cc4)o3)C2=O)c1 | –
2 | 7.8 | O=C(O)CSc1cc(NS(=O)(=O)c2ccc3ccccc3c2)c2ccccc2c1O | –
3 | 42.9 | O=C1NN(c2ccccc2)C(=O)/C1=C\c1ccc(-c2ccc(C(=O)O)c(Cl)c2)o1 | –
4 | 29.5 | CCOc1cc(/C=C2\N=C(c3ccccc3)OC2=O)cc(Br)c1OCC(=O)O | –
5 | 15.3 | O=C(O)CSc1cc(NS(=O)(=O)c2ccc(Cl)cc2)c2ccccc2c1O | –
6 | 6.4 | CC(C)c1ccc(S(=O)(=O)Nc2cc(SCC(=O)O)c(O)c3ccccc23)cc1 | –
7 | > 100 | CC(C)(C)c1ccc(S(=O)(=O)Nc2cc(SCc3ccco3)c(O)c3ccccc23)cc1 | –
8 | 49.2 | O=C1NN(c2cccc(Cl)c2)C(=O)/C1=C\c1ccc(-c2cccc(C(=O)O)c2)o1 | –
9 | – | CC(C)c1ccc(S(=O)(=O)Nc2cc(Sc3nc[nH]n3)c(O)c3ccccc23)cc1 | Activity [1]: tde; Activity [2]: inactive; Activity [3]: Active; Activity [4]: Dose-dependent effect
10 | > 100 | O=C(CN1C(=O)S/C(=C\c2cccn2-c2cccc(C(=O)O)c2)C1=O)Nc1ccc(F)cc1 | –
11 | > 100 | NC(=O)c1ccc(-c2ccc(/C=C3/C(=O)NN(c4ccc(F)cc4)C3=O)o2)cc1 | –
12 | – | COc1ccc(S(=O)(=O)Nc2ccc(NS(=O)(=O)c3ccc(OC)cc3)c3ccccc23)cc1 | ΔTm [5]: 1 °C; Activity [6]: inactive; Activity [7]: inactive
13 | > 100 | COc1ccc(-n2cccc2/C=C2\SC(=O)N(CC(=O)Nc3ccc(C)cc3)C2=O)cc1 | –
14 | 13.1 | O=S(=O)(Nc1cc(Sc2nc[nH]n2)c(O)c2ccccc12)c1ccc(Br)cc1 | –
15 | 36.6 | O=C(O)CSc1cc(NS(=O)(=O)c2cccs2)c2ccccc2c1O | –
16 | 3.1 | CCOc1ccc(S(=O)(=O)Nc2cc(Sc3nc[nH]n3)c(O)c3ccccc23)cc1 | ΔTm [5]: 4 °C
17 | 15.2 | O=C1NN(c2cccc(Cl)c2)C(=O)/C1=C\c1ccc(-c2ccc(C(=O)O)c(Cl)c2)o1 | ΔTm [5]: 2 °C
18 | > 100 | Cc1ccc(S(=O)(=O)Nc2cc(SCc3ccccc3)c(O)c3ccccc23)cc1 | –
19 | > 100 | O=C(CN1C(=O)S/C(=C\c2cccn2-c2cccc(C(=O)O)c2)C1=O)Nc1ccc(Cl)cc1 | –
20 | > 100 | CN1C(=O)S/C(=C\c2cccn2-c2cccc(C(=O)O)c2)C1=O | –
21 | 75.2 | Cc1oc2c(cc(NS(=O)(=O)c3ccc(Cl)cc3)c3ccccc32)c1C(=O)O | –
22 | > 100 | Cc1ccc(S(=O)(=O)Nc2cc(Sc3nc4ccccc4s3)c(O)c3ccccc23)cc1 | ΔTm [5]: 1 °C
23 | 77.8 | O=C1NN(c2cccc(F)c2)C(=O)/C1=C\c1ccc(-c2ccc(C(=O)O)cc2)o1 | –
24 | > 100 | Cc1ccc(NC(=O)CN2C(=O)S/C(=C\c3cccn3C)C2=O)c(C)c1 | –
25 | 20.9 | Cc1cc(C)c(S(=O)(=O)Nc2cc(Cl)c(O)c(Sc3nc[nH]n3)c2)cc1C | –
26 | 6.8 | COc1ccc(S(=O)(=O)Nc2cc(Sc3nc[nH]n3)c(O)c3ccccc23)cc1 | –
27 | > 100 | CC(=O)Oc1c(SCC(=O)O)cc(NS(=O)(=O)c2ccc(F)cc2)c2ccccc12 | –
28 | 10.4 | Cc1ccccc1NC(=O)CN1C(=O)S/C(=C\c2cccn2-c2cccc(C(=O)O)c2)C1=O | ΔTm [5]: 1 °C

Row | Kd (Keap1/Nrf2) [µM] | SMILES | also measured
29 | > 100 | Cc1ccc(S(=O)(=O)Nc2cc(Sc3nc(C)cc(C)n3)c(O)c3ccccc23)cc1 | –
30 | 61.2 | O=S(=O)(Nc1cc(Sc2nc[nH]n2)c(O)c2ccccc12)c1ccccc1 | –
31 | 23.8 | COc1ccc(NC(=O)CN2C(=O)S/C(=C\c3cccn3-c3ccc(C(=O)O)cc3)C2=O)cc1 | –
32 | 30.2 | O=C(O)CSc1cc(NS(=O)(=O)c2ccc(F)cc2)c2ccccc2c1O | –
33 | > 100 | Cc1ccc(S(=O)(=O)Nc2cc(Sc3cccc4cccnc34)c(O)c3ccccc23)cc1 | –
34 | 39.5 | O=C1NN(c2cccc(Cl)c2)C(=O)/C1=C\c1ccc(-c2ccc(Br)cc2C(=O)O)o1 | –
35 | 4.2 | Cc1cc(C)c(S(=O)(=O)Nc2cc(SCC(=O)O)c(O)c3ccccc23)c(C)c1 | –
36 | 18.9 | O=C(O)CSc1cc(NS(=O)(=O)c2cccc3cccnc23)c2ccccc2c1O | –
37 | > 100 | Cc1cccc(C)c1NC(=O)CN1C(=O)S/C(=C\c2cccn2-c2cccc(C(=O)O)c2)C1=O | –
38 | 15.4 | Cc1ccc(S(=O)(=O)Nc2cc(SCC(=O)O)c(O)c3ccccc23)cc1 | –
39 | > 100 | COc1ccc(S(=O)(=O)Nc2cc(Sc3ccccc3)c(O)c3ccccc23)cc1 | –
40 | 28.9 | Cc1ccc(NC(=O)CN2C(=O)S/C(=C\c3cccn3-c3cccc(C(=O)O)c3)C2=O)cc1C | –
41 | > 100 | COc1ccc(-n2cccc2/C=C2\SC(=O)N(CC(=O)Nc3cccc(C)c3)C2=O)cc1 | –
42 | > 100 | COC(=O)c1ccc(N2NC(=O)/C(=C/c3ccc(-c4ccc(S(N)(=O)=O)cc4)o3)C2=O)cc1 | –
43 | 47.6 | Cc1ccc(NC(=O)CN2C(=O)S/C(=C\c3cccn3-c3cccc(C(=O)O)c3)C2=O)c(C)c1 | –
44 | 35.4 | Cc1ccc(/N=C2/S/C(=C\c3c(C)n(CC(=O)O)c4ccccc34)C(=O)N2C)cc1 | –
45 | 55.5 | O=S(=O)(Nc1cc(Sc2nnnn2-c2ccccc2)c(O)c2ccccc12)c1ccccc1 | –
46 | > 100 | Cc1ccc(S(=O)(=O)Nc2ccc(O)c(Sc3nc[nH]n3)c2)cc1 | –
47 | 3.6 | O=S(=O)(Nc1cc(Sc2nc[nH]n2)c(O)c2ccccc12)c1ccc2ccccc2c1 | –
48 | 12.2 | Cc1cc(F)ccc1S(=O)(=O)Nc1cc(SCC(=O)O)c(O)c2ccccc12 | –
49 | 14.7 | O=C(O)CSc1cc(NS(=O)(=O)c2ccc(Br)cc2)c2ccccc2c1O | –
50 | > 100 | O=C(CN1C(=O)S/C(=C\c2cccn2-c2ccc(O)cc2)C1=O)Nc1ccccc1F | –
51 | 3.6 | Cc1cc(C)c(S(=O)(=O)Nc2cc(Sc3nc[nH]n3)c(O)c3ccccc23)cc1C | –
52 | 68.2 | Cc1cccc(NC(=O)CN2C(=O)S/C(=C\c3cccn3-c3cccc(C(=O)O)c3)C2=O)c1 | –
53 | > 100 | Cc1cc(C)c(S(=O)(=O)Nc2cc3sc(=O)oc3c3ccccc23)cc1C | ΔTm [5]: 1 °C
54 | > 100 | Cc1ccc(N2NC(=O)/C(=C/c3ccc(-c4ccc(S(=O)(=O)Nc5nccs5)cc4)o3)C2=O)cc1 | –
55 | > 100 | O=C1NN(c2ccc(Br)cc2)C(=O)/C1=C\c1ccc(-c2ccccc2)o1 | –
